Source: US20210352889A1, “MACROCYCLIC TETRAPYRROLE COMPOUNDS, COMPOSITIONS AND METHODS FOR INCREASING ABIOTIC STRESS RESISTANCE IN PLANTS” (SUNCOR ENERGY INC., priority 2018, published 2021)

Key:
[1] = test system: white clover (Trifolium repens) seedlings; experiment: Primary root length of white clover seedlings under salt stress (Example 3); type: in vivo; details: porphyrin 0.01% v/v, 7 days after germination, mean ± standard error
Protocol: In this example, the effect of porphyrin compounds on the sensitivity to salt stress of seedlings was evaluated. […] For exposure to salt, the water was adjusted to contain 100 mM NaCl. […] Salt stress tolerance was measured by determining the reduction of primary root length by analysis of pictures with the Image J™ software. Root lengths (mm) were measured 7 days after the germination. The following Table 3 summarizes the results.

[2] = test system: Tomato cultivar “Tiny Tim”; experiment: Tomato plant tolerance to heat stress (Example 19); type: in vivo; details: for Above ground plant biomass. Dry weight Total shoots / Roots dry weight / Above ground plant biomass, Fresh weight, Total shoots: heat stress 38° C., two foliar applications; for Above ground plant biomass. Dry weight Total shoots: harvest 27 days after first treatment, per plant; for Roots dry weight / Above ground plant biomass, Fresh weight, Total shoots: tomato; for Above ground plant biomass, Fresh weight, Total shoots: 27 days after first treatment; for Roots dry weight, % increase / Total shoots dry weight % increase / Total shoots fresh weight, % increase: vs Heat stress Control
Protocol: In this example, the effects of chlorin compounds and formulations were tested on Tomato cultivar “Tiny Tim” (Stokes seeds, Ontario, Canada). Several experiments were conducted in the greenhouse and Growth Chamber. The tests were designed to determine the activity of compounds on tomato plants tolerance to heat stress. In the experiments, Tomato transplants were grown in 6″ plastic pots filled with professional soil mix to 5-6 leaves stage in the greenhouse at 22° C.-25° C. and 8 h dark/16 h light photoperiod respectively. […] The Tomato plants were treated with two foliar applications of different formulations providing an even coverage (until run-off) using hand hold Spray bottle (Continental E-Z sprayer). Plants were treated with compounds two times with 7 days interval. Twenty four hours after the first foliar spray plants were placed into a Growth chamber and exposed to temperature stress (heat stress) for 10 days. […] After second foliar spray plants were placed for a second time into the Growth chamber and exposed to temperature stress (heat stress) for another 10 days. The Tomato plants were regularly watered to avoid water deficit. The Growth chamber was set at 16 h light/8 h dark photoperiod, illumination at 300 μmol·m^−2 s^−1 during the light photoperiod and 70% relative humidity. Temperature regime in the Growth chamber was set at 25° C. during the dark. […] Plants were moved from the Growth Chamber to the greenhouse and maintained in the greenhouse for four days prior to harvest. Twenty-seven days after the first treatment, plants were harvested, and biomass were recorded. Untreated plants—Heat stress Control was used as a reference for each measurement respectively. The experiments were set out in a completely randomized design with 6 replications for each treatment.

Arabidopsis thaliana [3] = experiment: Plant senescence triggered by salt stress, visual rating (Example 2); type: in vivo; parameters: key to Ratings at 14 days: 9: Normal growth, no leaf symptoms; 7: Nearly normal growth with some leaves and tips yellow and rolled; 4: Growth severely inhibited, significant yellowing of the leaves with most leaves rolled; 2: Complete growth arrest with most of the leaves dried and some plants dead; details: for % improvement: % senescence improvement relative to untreated control, 14 days; for Ratings at 14 days: visual leaf senescence score, salt stress 100, 200, 300 mM NaCl, percentages wt % of total composition
Protocol: In this example, the effect of metalized chlorin compounds and various additives on Arabidopsis thaliana senescence triggered by salt stress was measured by a visual rating scale reflecting progressive leaf senescence symptoms. […] It was also shown that the addition of oil, in particular poly-alpha-olefin (PAO), chelating agents or combinations thereof, further increased the protection. After prolonged exposure to salt stress, Na^+ accumulation in the shoot results in cytotoxic effects, whereby the most visible symptom is yellowing, followed by drying of leaves, due to leaf senescence and death. Leaf senescence may be evaluated by visual scoring reflecting progressive leaf senescence symptoms. [table] […] All percentage values in the Table are in wt % of total composition.

Arabidopsis thaliana [4] = experiment: Effect of different oil on Arabidopsis senescence under salt stress (Example 24); details: in vivo
Protocol: The experimental protocol is the same as that of Example 2. In this example, the effect of metalized chlorin compounds and various oils on Arabidopsis thaliana senescence triggered by salt stress was measured by a visual rating scale reflecting progressive leaf senescence symptoms. […] It was also shown that the addition of oil further increased the protection. After prolonged exposure to salt stress, Na^+ accumulation in the shoot results in cytotoxic effects, whereby the most visible symptom is yellowing, followed by drying of leaves, due to leaf senescence and death. Leaf senescence may be evaluated by visual scoring reflecting progressive leaf senescence symptoms.

[5] = test system: tomato plants cv. Tumbling Tom; experiment: Tomato plants tolerance to drought stress (Example 9); type: in vivo; details: Table 9C
Protocol: In this example, the effects of chlorin compounds and formulations were tested on tomato plants cv. Tumbling Tom. The experiments were carried out in a greenhouse. Tests were designed to determine the activity of compounds on tomato plants tolerance to drought stress. In the experiments, tomato plants cv. […] Foliar treatments were applied 3 times with 7 days interval. 5 replications per treatment were used.

[6] = test system: Arabidopsis thaliana seedlings; experiment: Primary root length of Arabidopsis seedlings under salt stress (Example 1); type: in vivo; details: for Root length (mm): 10 μM CuChln in media, 10 days after germination, mean ± standard error
Protocol: Experiments were conducted to evaluate the effect of metallized chlorin compounds on salt stress treated seedlings, by measuring of primary root length. Copper chlorophyllin (CuChIn) was supplemented to the media onto which Arabidopsis thaliana seeds germinated. […] For exposure to salt, media was adjusted to contain 100 mM NaCl. For exposure to CuChIn, CuChIn was prepared as a 1 mM stock in water and was added to the media at 10 μM CuChIn final concentration. […] Arabidopsis seedlings were grown vertically at a temperature of 24±1° C., under LED lights (PAR 24 μmol m^−2/s^−1) and 16 hours:8 hours, light:dark photoperiod. Salt stress tolerance was measured by determining the reduction of primary root lengths.

Arabidopsis seedlings = experiment: Pigment content under photooxidative conditions (Example 6); type: in vivo, Arabidopsis thaliana
Protocol: In this example, the effect of chlorin compounds on the pigment content of seedlings grown under photooxidative conditions was evaluated. In particular, the effect of CuChIn on the pigment content of Arabidopsis seedlings grown under photooxidative conditions was evaluated. To do so, the pigments were extracted and quantified. It was shown that CuChIn supplemented plants retained more pigments under this type of stress. […] In this experiment, to determine the effect of CuChIn on the pigment content, seedlings were grown as in Example 1, except that the plants were transferred under LED lights (PAR 142 μmol m^-2 s^-1) one week after germination. 14 days old seedlings were then harvested and weighted. The tissue was ground in liquid nitrogen. […] The pigment concentrations were determined spectrophotometrically and calculated using the following formulas known to those skilled in the art (i.e. Sumanta et al., 2014):Ch-a=16.72A665.2-9.16A652. (for chlorophyll a); Ch-b=34.09[…]=(1000A470-1.63Ca-104.96Cb)/221 (for carotenoids) and […]-(1⁄4×[…]) (for anthocyanins) (A=absorbance). The data is expressed as means±standard error.

[7] = foliar spray, vs drought control
[8] = 20 μM CuChln, photooxidative conditions, 14 days old seedlings, mean ± standard error

Molecule: C=CC1=C(C)c2cc3[n-]c(cc4[n-]c(cc5nc(cc1n2)C(C)=C5C=C)c(C)c4CCC(=O)O)c(CCC(=O)O)c3C.[Zn+2] [ZnPP9, zinc protoporphyrin-IX]
- Root length (mm) ([1]; 0 mM NaCl): 1.01 ± 0.08 mm
- Root length (mm) ([1]; 100 mM NaCl): 0.8 ± 0.08 mm

Molecule: O=C([O-])CN(CCN(CC(=O)[O-])CC(=O)[O-])CC(=O)[O-].[Ca+2].[Ca+2] [0.05% Ca2EDTA, reference compound]
- Above ground plant biomass. Dry weight Total shoots [2]: 4.72 g
- Roots dry weight [2]: 1.07 g/plant−^1
- Above ground plant biomass, Fresh weight, Total shoots [2]: 34.62 g/plant^−1
- Roots dry weight, % increase [2]: 15%
- Total shoots dry weight % increase [2]: 6%
- Total shoots fresh weight, % increase [2]: 3%

Molecule: O=C(O)CC(NCCNC(CC(=O)O)C(=O)O)C(=O)O (stereo not shown) [5 mM EDDS, ethylenediamine-N,N′-disuccinic acid, reference compound]
- % improvement (Arabidopsis thaliana [3]): 14.4%
- Ratings at 14 days (Arabidopsis thaliana [3]): 4

Molecule: copper chlorophyllin [CuChln]
- protection against senescence triggered by salt stress (Arabidopsis thaliana [4]): provided protection against senescence triggered by salt stress
- Above ground plant biomass. Dry weight Total shoots [2]: 4.92 g
- Roots dry weight [2]: 1.17 g/plant−^1
- Above ground plant biomass, Fresh weight, Total shoots [2]: 37.17 g/plant^−1
- Roots dry weight, % increase [2]: 26%
- Total shoots dry weight % increase [2]: 10%
- Total shoots fresh weight, % increase [2]: 11%
- % improvement (Arabidopsis thaliana [3]): 28.7%
- protection against senescence triggered by salt stress (Arabidopsis thaliana [3]; in vivo): provides protection against plants senescence triggered by salt stress
- Ratings at 14 days (Arabidopsis thaliana [3]): 4.5
- Shoots Dry weight % increase [5, 7]: 4%
- Shoots Fr. weight % increase [5, 7]: 29.6%
- Plant vigor Score 1-5 ([5]; prolonged drought, foliar spray 3 times): 4.6
- Shoots Fr. weight ([5]; prolonged drought, foliar spray 3 times with 7 days interval, Rate, %: CuChln 0.1, PAO488 + CuChln 0.5 + 0.1): 8.7 g
- Shoots Dry weight ([5]; prolonged drought, foliar spray 3 times, Rate, %: CuChln 0.1, PAO488 + CuChln 0.5 + 0.1): 0.84 g
- Root length (mm) ([6]; 0 mM NaCl): 5.05 ± 0.09 mm
- influence on root length in the control experiment ([6]; 10 μM CuChIn, no salt): did not influence the root length
- Root length (mm) ([6]; 100 mM NaCl): 3.16 ± 0.14 mm
- salt tolerance vs untreated plants ([6]; CuChIn supplemented media): more salt tolerant than untreated plants
- Anthocyanins (Arabidopsis seedlings; [8]): 0.08 ± 0.05 µg/mL
- Ch-a (Arabidopsis seedlings; [8]): 6.62 ± 0.8 µg/mL
- Ch-b (Arabidopsis seedlings; [8]): 2.28 ± 0.14 µg/mL
- Cx + c (carotenoids) (Arabidopsis seedlings; [8]): 1.56 ± 0.25 µg/mL
- pigments retained under photooxidative conditions (Arabidopsis seedlings; in vivo): retain more pigments than untreated plants

Molecule: C=CC1=C(C)c2cc3[nH]c(cc4nc(cc5[nH]c(cc1n2)c(C)c5CCC(=O)O)C(CCC(=O)O)=C4C)c(C)c3C=C [PP9, protoporphyrin-IX]
- Root length (mm) ([1]; 0 mM NaCl): 1.04 ± 0.05 mm
- Root length (mm) ([1]; 100 mM NaCl): 0.7 ± 0.08 mm

Molecule: ethylenediaminetetraacetic acid-Ca [reference compound]
- % improvement (Arabidopsis thaliana [3]): 14.4%
- Ratings at 14 days (Arabidopsis thaliana [3]): 4

Molecule: O=C([O-])CC(NC(CC(=O)[O-])C(=O)[O-])C(=O)[O-].[Na+].[Na+].[Na+].[Na+] (stereo not shown) [0.25% Baypure CX100 ™, tetrasodium iminodisuccinate]
- % improvement (Arabidopsis thaliana [3]): 14.4%
- Ratings at 14 days (Arabidopsis thaliana [3]): 4
